In patent US4618622A, “Sulfonates of hydroxycoumarins” (priority 1982, dated 1986) one finds ED50 and IC50 data, which are given here for 41 compounds.

The test system of experiment [1] is reserpine-induced hypothermia. As to the kind of experiment: Antidepressant action: inhibition of reserpine-induced hypothermia (reserpine test). Type of experiment: in vivo, mouse (male, Swiss strain). As to conditions: read-out: Antidepressant action (mouse) ED50. Here is the method:
The test substances are administered orally, 60 minutes before the reserpine.

The next experiment concerns the target T1, Monoaminoxidase A (Rattus norvegicus, UniProt P21396).
T1 sequence (P21396 1-526): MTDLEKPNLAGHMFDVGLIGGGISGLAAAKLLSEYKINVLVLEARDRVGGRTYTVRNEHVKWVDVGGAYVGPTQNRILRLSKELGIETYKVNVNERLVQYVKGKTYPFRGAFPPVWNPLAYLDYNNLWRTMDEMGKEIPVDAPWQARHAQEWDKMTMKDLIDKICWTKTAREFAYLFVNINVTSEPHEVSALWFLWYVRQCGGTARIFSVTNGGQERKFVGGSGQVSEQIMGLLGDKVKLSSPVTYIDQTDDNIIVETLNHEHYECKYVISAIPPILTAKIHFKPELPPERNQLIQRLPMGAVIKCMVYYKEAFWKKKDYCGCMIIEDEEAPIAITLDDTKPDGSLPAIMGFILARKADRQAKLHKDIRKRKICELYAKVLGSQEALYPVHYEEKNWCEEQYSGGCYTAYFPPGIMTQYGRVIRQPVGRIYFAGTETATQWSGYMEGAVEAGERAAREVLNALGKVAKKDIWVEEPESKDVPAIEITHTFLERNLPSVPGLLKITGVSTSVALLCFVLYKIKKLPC
As to the kind of experiment: biochemical. As to conditions: monoaminoxidase A, rat brain homogenate, 14C-tryptamine 0.4 μmol/liter, 37° C., 20 minutes; read-out: Monoaminoxidase inhibition IC50. Here is the method: Monoaminoxidase A is determined in dilute rat brain homogenate to which
1. various concentrations of the test substances and
2. ^14 C-tryptamine in a concentration of 0.4 μmol/liter are added. This mixture is incubated at 37° C. for 20 minutes, after which the reaction is terminated by means of aqueous 0.1N HCl, and the products are extracted with toluene scintillator (PPO+POPOP in toluene) and then determined. The blank value is determined in similar mixtures for an incubation time of t=0 minutes.
The mean inhibitory concentration (IC50) is calculated from the inhibitory values determined, in comparison with the control, at the various inhibitor concentrations, by means of a linear regression after logit-log transformation.

Where [2] appears, read: oral administration, 60 minutes before reserpine 2.15 mg/kg s.c., mouse, temperature 2 hours after.

Like-named read-outs stand apart in the source and are kept apart here.

The ED50 is the dose that gives a 50% effect, or the effect in half of the subjects. The IC50 is the concentration needed to halve the response being measured.

`Cc1c(C)c2ccc(OS(C)(=O)=O)cc2oc1=O` [Example 2, 7-Hydroxy-3,4-dimethylcoumarin methanesulfonate]: the ED50 in experiment [1] (setting [2]) was 5.9 mg/kg.
Consider `Cc1c(C)c2ccc(OS(=O)(=O)c3cccc4ccccc34)cc2oc1=O` [Example 3, 7-Hydroxy-3,4-dimethylcoumarin naphthalene-1'-sulfonate], for which the IC50 on Monoaminoxidase A is 0.076 µM.
Take `Cc1c(C)c2ccc(OS(=O)(=O)c3ccc4ccccc4c3)cc2oc1=O` [Example 4, 7-Hydroxy-3,4-dimethylcoumarin naphthalene-2'-sulfonate]: the ED50 in experiment [1] (setting [2]) was found to be 4 mg/kg.
As to `Cc1c(C)c2ccc(OS(=O)(=O)c3ccccc3[N+](=O)[O-])cc2oc1=O` [Example 6, 7-Hydroxy-3,4-dimethylcoumarin 2'-nitrobenzenesulfonate], the IC50 at Monoaminoxidase A stood at 0.11 µM.
Take `Cc1c(C)c2ccc(OS(=O)(=O)c3ccc(OC(F)(F)C(F)F)cc3)cc2oc1=O` [Example 8, 7-Hydroxy-3,4-dimethylcoumarin 4'-(α,α,β,β-tetrafluoroethoxy)-benzenesulfonate]: the IC50 on Monoaminoxidase A was 0.16 µM.
Turning to `Cc1c(C)c2ccc(OS(=O)(=O)c3ccc(Cl)cc3)cc2oc1=O` [Example 9, 7-Hydroxy-3,4-dimethylcoumarin 4'-chlorobenzenesulfonate], the ED50 in experiment [1] (setting [2]) was 6.1 mg/kg.
With `Cc1c(C)c2ccc(OS(=O)(=O)c3ccc(Br)cc3)cc2oc1=O` [Example 11, 7-Hydroxy-3,4-dimethylcoumarin 4'-bromobenzenesulfonate], the 50% effective dose (ED50) in experiment [1] (setting [2]) came out at 2.5 mg/kg.
On to `Cc1cc(C)c(S(=O)(=O)Oc2ccc3c(C)c(C)c(=O)oc3c2)c(C)c1` [Example 12, 7-Hydroxy-3,4-dimethylcoumarin 2',4',6'-trimethylbenzenesulfonate], for which, at Monoaminoxidase A, the IC50 was found to be 0.051 µM.
Take `Cc1c(C)c2ccc(OS(=O)(=O)c3cc(Cl)ccc3Cl)cc2oc1=O` [Example 13, 7-Hydroxy-3,4-dimethylcoumarin 2',5'-dichlorobenzenesulfonate]: the IC50 at Monoaminoxidase A was determined as 0.027 µM.
As for `Cc1c(C)c2ccc(OS(=O)(=O)c3ccc(F)cc3)cc2oc1=O` [Example 14, 7-Hydroxy-3,4-dimethylcoumarin 4'-fluorobenzenesulfonate], in experiment [1] (setting [2]), the ED50 was found to be 1.4 mg/kg.
`CC(=O)Nc1ccc(S(=O)(=O)Oc2ccc3c(C)c(C)c(=O)oc3c2)cc1` [Example 15, 7-Hydroxy-3,4-dimethylcoumarin 4'-acetylaminobenzenesulfonate]: on Monoaminoxidase A, the IC50 was 0.62 µM.
On to `Cc1c(C)c2ccc(OS(=O)(=O)c3ccc(C#N)cc3)cc2oc1=O` [Example 18, 7-Hydroxy-3,4-dimethylcoumarin 4'-cyanobenzenesulfonate], for which, in experiment [1] (setting [2]), the ED50 came to 3.6 mg/kg.
Take `Cc1cc2ccc(OS(=O)(=O)c3ccc(Br)cc3)cc2oc1=O` [Example 19, 7-Hydroxy-3-methylcoumarin 4'-bromobenzenesulfonate]: on Monoaminoxidase A, the IC50 is 0.0098 µM.
In the case of `Cc1cc2ccc(OS(=O)(=O)c3ccccc3)cc2oc1=O` [Example 20, 7-Hydroxy-3-methylcoumarin benzenesulfonate], the IC50 at Monoaminoxidase A came out at 0.067 µM.
Same read-out and setting: under `O=c1oc2cc(OS(=O)(=O)c3ccccc3)ccc2c2c1CCCC2` [Example 21, 7-Hydroxy-3,4-tetramethylenecoumarin benzenesulfonate] stands 0.55 µM.
Consider `CCCS(=O)(=O)Oc1ccc2c(C)c(C)c(=O)oc2c1` [Example 22, 7-Hydroxy-3,4-dimethylcoumarin propanesulfonate], for which, in experiment [1] (setting [2]), the ED50 is 1.4 mg/kg. The IC50 at Monoaminoxidase A was 0.0096 µM.
As to `Cc1c(C)c2ccc(OS(=O)(=O)C(C)C)cc2oc1=O` [Example 23, 7-Hydroxy-3,4-dimethylcoumarin isopropanesulfonate], the 50% effective dose (ED50) in experiment [1] (setting [2]) was determined as 3.1 mg/kg. Also, at Monoaminoxidase A, the IC50 worked out at 0.0037 µM.
In the case of `Cc1c(C)c2ccc(OS(=O)(=O)C(F)(F)F)cc2oc1=O` [Example 24, 7-Hydroxy-3,4-dimethylcoumarin trifluoromethanesulfonate], the ED50 in experiment [1] (setting [2]) worked out at 3.7 mg/kg. The IC50 at Monoaminoxidase A turned out to be 0.075 µM.
With `Cc1c(C)c2ccc(OS(=O)(=O)Cc3ccccc3)cc2oc1=O` [Example 25, 7-Hydroxy-3,4-dimethylcoumarin phenylmethanesulfonate], at Monoaminoxidase A, the IC50 came to 0.077 µM.
In the case of `CCCCS(=O)(=O)Oc1ccc2c(C)c(C)c(=O)oc2c1` [Example 26, 7-Hydroxy-3,4-dimethylcoumarin butanesulfonate], the ED50 in experiment [1] (setting [2]) turned out to be 1.8 mg/kg. For the same compound, on Monoaminoxidase A, the IC50 came out at 0.0073 µM.
`CCCCCCCCS(=O)(=O)Oc1ccc2c(C)c(C)c(=O)oc2c1` [Example 27, 7-Hydroxy-3,4-dimethylcoumarin octanesulfonate]: the IC50 at Monoaminoxidase A was determined as 0.034 µM.
As to `O=c1oc2cc(OS(=O)(=O)c3ccc(Br)cc3)ccc2c2c1CCCC2` [Example 28, 7-Hydroxy-3,4-tetramethylenecoumarin 4'-bromobenzenesulfonate], the concentration for half-maximal inhibition (IC50) on Monoaminoxidase A is 0.29 µM.
As to `O=c1oc2cc(OS(=O)(=O)c3ccc(Cl)cc3)ccc2c2c1CCCC2` [Example 29, 7-Hydroxy-3,4-tetramethylenecoumarin 4'-chlorobenzenesulfonate], the IC50 on Monoaminoxidase A was 0.11 µM.
For the compound `Cc1cc2ccc(OS(=O)(=O)c3ccc(Cl)cc3)cc2oc1=O` [Example 30, 7-Hydroxy-3-methylcoumarin 4'-chlorobenzenesulfonate], in experiment [1] (setting [2]), the ED50 stood at 9 mg/kg. For the same compound, the 50% inhibitory concentration (IC50) at Monoaminoxidase A was 0.0063 µM.
On to `CCc1cc(=O)oc2cc(OS(=O)(=O)c3ccc(Cl)cc3)ccc12` [Example 31, 4-Ethyl-7-hydroxycoumarin 4'-chlorobenzenesulfonate], for which the IC50 on Monoaminoxidase A turned out to be 0.03 µM.
As to `CCc1cc(=O)oc2cc(OS(=O)(=O)c3ccccc3)ccc12` [Example 32, 4-Ethyl-7-hydroxycoumarin benzenesulfonate], the IC50 on Monoaminoxidase A worked out at 0.12 µM.
On the same count and under the same terms, under `CCc1c(C)c2ccc(OS(=O)(=O)c3ccc(Cl)cc3)cc2oc1=O` [Example 34, 3-Ethyl-7-hydroxy-4-methylcoumarin 4'-chlorobenzenesulfonate] stands 0.023 µM; under `CCCc1c(C)c2ccc(OS(=O)(=O)c3ccc(Cl)cc3)cc2oc1=O` [Example 37, 7-Hydroxy-4-methyl-3-propylcoumarin 4'-chlorobenzenesulfonate], 0.067 µM.
Consider `CCCCCS(=O)(=O)Oc1ccc2c(C)c(C)c(=O)oc2c1` [Example 38, 7-Hydroxy-3,4-dimethylcoumarin pentanesulfonate], for which the ED50 in experiment [1] (setting [2]) came out at 1.4 mg/kg.
In the case of `CCS(=O)(=O)Oc1ccc2c(C)c(C)c(=O)oc2c1` [Example 39, 7-Hydroxy-3,4-dimethylcoumarin ethanesulfonate], the ED50 in experiment [1] (setting [2]) came out at 1.7 mg/kg.
Regarding `Cc1cc(=O)oc2cc(OS(=O)(=O)c3ccc(Cl)cc3)ccc12` [Example 40, 7-Hydroxy-4-methylcoumarin 4'-chlorobenzenesulfonate], the ED50 in experiment [1] (Mus musculus, po, 2 h) was 8.7 mg/kg. In addition, the IC50 on Monoaminoxidase A is 0.0065 µM.
Turning to `Cc1cc(=O)oc2cc(OS(=O)(=O)c3ccccc3)ccc12` [Example 41, 7-Hydroxy-4-methylcoumarin benzenesulfonate], the ED50 in experiment [1] (setting [2]) turned out to be 29.7 mg/kg.
Regarding `CNS(=O)(=O)Oc1ccc2c(C)c(C)c(=O)oc2c1` [Example 43, 7-Hydroxy-3,4-dimethylcoumarin N-methylamidosulfonate], the ED50 in experiment [1] (setting [2]) worked out at 1.9 mg/kg.
Turning to `CC(C)S(=O)(=O)Oc1ccc2ccc(=O)oc2c1` [Example 45, 7-Hydroxycoumarin isopropanesulfonate], the IC50 at Monoaminoxidase A came to 0.16 µM.
On the same count and under the same terms, the value for `COC(=O)Cc1c(C)c2ccc(OS(=O)(=O)c3ccc(Br)cc3)cc2oc1=O` [Example 48, 7-Hydroxy-3-carbomethoxymethyl-4-methylcoumarin 4'-bromobenzenesulfonate] was 0.022 µM; that for `CCOC(=O)c1cc2ccc(OS(=O)(=O)c3ccc(Cl)cc3)cc2oc1=O` [Example 50, 7-Hydroxy-3-carboethoxycoumarin 4'-chlorobenzenesulfonate] was 0.54 µM; that for `CCOC(=O)c1cc2ccc(OS(=O)(=O)c3ccc([N+](=O)[O-])cc3)cc2oc1=O` [Example 51, 7-Hydroxy-3-carboethoxycoumarin 4'-nitrobenzenesulfonate] was 0.54 µM.
With `Cc1c(C)c2ccc(OS(=O)(=O)CCCCl)cc2oc1=O` [Example 55, 7-Hydroxy-3,4-dimethylcoumarin 3'-chloropropanesulfonate], in experiment [1] (setting [2]), the ED50 was determined as 1.3 mg/kg.
In the case of `Cc1c(C)c2ccc(OS(=O)(=O)CCl)cc2oc1=O` [Example 56, 7-Hydroxy-3,4-dimethylcoumarin chloromethanesulfonate], the ED50 in experiment [1] (setting [2]) turned out to be 3.4 mg/kg.
`Cc1c(C)c2ccc(OS(=O)(=O)c3cccc([N+](=O)[O-])c3)cc2oc1=O` [Example 57, 7-Hydroxy-3,4-dimethylcoumarin 3'-nitrobenzenesulfonate]: the ED50 in experiment [1] (setting [2]) worked out at 1.5 mg/kg.
Consider `Cc1c(Cl)c(=O)oc2cc(OS(=O)(=O)C(C)C)ccc12` [Example 60, 7-Hydroxy-3-chloro-4-methylcoumarin isopropanesulfonate], for which the IC50 at Monoaminoxidase A was 0.014 µM.
